Results reported in patent US10905118B2, “Triscationic amphiphile compounds, compositions, and methods for making same” (James Madison Innovations, Inc., priority 2014, dated 2021).

Assays:
Bacillus cereus = test: Minimum inhibitory concentration, B. cereus; type: cell-based; conditions: Mueller-Hinton Broth, 37° C., 72 h
Protocol: (§1) The MIC values of all compounds from both double-tailed series were determined for four Gram-positive (Staphylococcus aureus, Enterococcus faecalis, Streptococcus agalactiae, and Bacillus cereus) and two Gram-negative (Escherichia coli and Pseudomonas aeruginosa) strains, which are shown in Table 3.
(§2) The Gram-positive bacterial strains used tested were Staphylococcus aureus subsp. aureus ATCC® 29213™, Enterococcus faecalis ATCC® 29212™, Bacillus cereus, and Streptococcus agalactiae J48.^58 The Gram-negative bacterial strains used were Escherichia coli ATCC® 25922™ and Pseudomonas aeruginosa ATCC® 27853™. All strains were grown in 1× Mueller-Hinton Broth at 37° C. for 12-24 h. For the MIC and combination studies, bacterial suspensions were prepared by diluting overnight cultures to 5×10^6 CFU/mL in 2× Mueller-Hinton Broth, so that when amphiphile solutions are added the final broth strength is 1×.
(§3) The methods used to determine the MIC and MBC were performed as previously described and followed the standards set forth by the Clinical and Laboratory Standards Institute (See Ladow, J. E.; Warnock, D. C.; Hamill, K. M.; Simmons, K. L.; Davis, R. W.; Schwantes, C. R.; Flaherty, D. C.; Willcox, J. A. L.; Wilson-Henjum, K.; Caran, K. L.; Minbiole, K. P. C.; Seifert, K. Bicephalic amphiphile architecture affects antibacterial activity. Eur. J. Med. Chem. 2011, 46, 4219-4226 and P. A. Wayne Methods for dilution antimicrobial tests for bacteria that grow aerobically. 2009.). Briefly, compounds were serially diluted and 100 μL of each dilution were added to the wells of a 96-well flat-bottomed microtiter plate in triplicate. After adding 100 μL of the bacterial cell suspension, the plates were incubated at 37° C. for 72 h. […] The MIC was considered to be bactericidal if the MBC was the same concentration or one concentration higher in the dilution series as the MIC, per Motyl, M.; Dorso, K.; Barrett, J.; Giacobbe, R. Basic microbiological techniques used in antibacterial drug discovery. Curr. Protoc. Pharmacol. 2006, Chapter 13.

Escherichia coli = test: Minimum inhibitory concentration, E. coli; type: cell-based, Escherichia coli ATCC 25922; conditions: Mueller-Hinton Broth, 37° C., 72 h
Protocol: as §1, §2, §3

Pseudomonas aeruginosa = test: Minimum inhibitory concentration, P. aeruginosa; type: cell-based, Pseudomonas aeruginosa ATCC 27853; conditions: Mueller-Hinton Broth, 37° C., 72 h
Protocol: as §1, §2, §3

Enterococcus faecalis = test: Minimum inhibitory concentration, E. faecalis; type: cell-based, Enterococcus faecalis ATCC 29212; conditions: Mueller-Hinton Broth, 37° C., 72 h
Protocol: as §1, §2, §3

Staphylococcus aureus = test: Minimum inhibitory concentration, S. aureus; type: cell-based, Staphylococcus aureus subsp. aureus ATCC 29213; conditions: Mueller-Hinton Broth, 37° C., 72 h
Protocol: as §1, §2, §3

Streptococcus agalactiae = test: Minimum inhibitory concentration, S. agalactiae; type: cell-based, Streptococcus agalactiae J48; conditions: Mueller-Hinton Broth, 37° C., 72 h
Protocol: as §1, §2, §3

[1] = Isothermal titration calorimetry: critical aggregation concentration and thermodynamics of aggregation; type: physicochemical; conditions: for −TΔSmic / ΔGmic / CMC / ΔHmic: 37° C.; for −TΔSmic: Gibbs-Helmholtz equation; for −TΔSmic / ΔGmic: double-tailed series; for ΔGmic: approximated with RT ln(CAC/55.5); for CMC / ΔHmic: ITC, pure water, double-tailed M-P and M-1 series; for −TΔSagg term (sign, in words): Table 1
Protocol: Isothermal titration calorimetry (ITC) was used to determine the critical aggregation concentration (CAC) and the thermodynamic parameters at 37° C. associated with aggregate formation for each double-tailed amphiphile for the M-P and M-1 series, as shown in Table 1.
A Nano ITC was used to measure the heat change associated with the deaggregation of amphiphiles via power compensation. A concentrated aqueous solution of amphiphile (>>CAC) was titrated into a thermally controlled sample cell, initially containing pure water, in a series of discrete injections. Isothermal titration calorimetry was used to determine the critical aggregation concentration (CAC) and ΔHagg. Shown in FIG. 5 is the heat rate associated with each injection versus time for 9 (M-1,14,14). Shown in FIG. 6 is the integration of the heat per injection normalized by the number of moles of each injection versus the increasing concentration of amphiphile in the well. In FIG. 6, inset, CAC is determined by calculating the first derivative the heat curve.
During initial injections (Range I), measured heat changes are due to both the dilution of aggregates and deaggregation. This can be observed in the first 10 injections, where aggregates absorbed heat and disassociated into dissolved monomers. The heat change produced by each injection was approximately constant in this range. In Range II, injected aggregates don't fully dissociate, reducing the total absorbed heat for each subsequent injection. At concentrations well above the CAC (Range III), absorbed heat is attributed only to the dilution of aggregates and is approximately constant. […] CAC and thermodynamic data were not determined for the amphiphiles with the shortest tails [1 (M-P,8,8) and 6 (M-1,8,8)] because the heat evolved during injection was […] the threshold of the instrument.
The difference between the average heat of injections in Range I, representing the total heat due to the dilution of aggregates and deaggregation, and the average heat of injections in Range III, representing the heat due solely to the dilution of aggregates, gives the heat of deaggregation, ΔHdeagg. The ΔHdeagg for compound 9 (M-1,14,14) is 37 kJ/mol, corresponding to a heat of aggregate formation, ΔHagg, of −37 kJ/mol (ΔHagg=−ΔHdeagg).
The ΔGagg can be approximated for the aggregation of nonionic amphiphiles by the equation: ΔGagg=RT ln(CAC/55.5) (3)
where m is the concentration of counterions that associate with a aggregate and n is the number of monomers that associate to form an aggregate. […] BBA-Biomembranes. 2000, 1508, 69-85.)
The entropy of aggregation (ΔSagg) is dictated by a combination of entropic factors that favor or disfavor aggregate formation and can be approximated using the Gibbs-Helmholtz equation: ΔGagg=ΔHagg−TΔSagg (5)
CAC and ΔHagg were determined using a Nano-ITC (TA-Instruments). Prior to each experiment the sample cell was washed with dH2O (300 mL), ethanol (100 mL), dH2O (300 mL) and nanopure water (200 mL). Next, 950 μL of nanopure water was added to the sample cell. A concentrated aqueous solution (>>CAC) of amphiphile was prepared and equilibrated at 37° C. A 250 μL syringe was filled with the aqueous solution, and loaded into the Nano ITC. Multiple single injections in aliquots of 5 μL were injected into the sample cell with time intervals varying from 300 s to 1400 s. Samples were continuously stirred (300 rpm) throughout the titration. The Nano-Analyze program (TA-Instruments) was used to analyze the data. CAC and ΔHagg values reported are the average of two or more repeat experiments for each amphiphile.

SMILES	MIC B. cereus (G+) (Bacillus cereus)	MIC E. coli (G−) (Escherichia coli)	MIC P. aeruginosa (G−) (Pseudomonas aeruginosa)	MIC E. faecalis (G+) (Enterococcus faecalis)	MIC S. aureus (G+) (Staphylococcus aureus)	MIC S. agalactiae (G+) (Streptococcus agalactiae)	−TΔSmic [1]	ΔGmic [1]	CMC [1]	ΔHmic [1]	−TΔSagg term (sign, in words) [1]
CCCCCCCC[N+](C)(C)Cc1cc(C[n+]2ccccc2)cc(C[N+](C)(C)CCCCCCCC)c1.[Br-].[Br-].[Br-] [Compound 1]	>250 µM	>250 µM	>250 µM	>250 µM	>250 µM	>250 µM	–	–	–	–	–
CCCCCCCCCCCC[N+](C)(C)Cc1cc(C[N+](C)(C)C)cc(C[N+](C)(C)CCCCCCCCCCCC)c1.[Br-].[Br-].[Br-] [Compound 8]	2 µM	4 to 8 µM	16 µM	2 µM	2 µM	2 µM	0.0196 kcal/mol	-6.21 kcal/mol	2.5 mM	-6.21 kcal/mol	negative
CCCCCCCCCCCCCCCC[N+](C)(C)Cc1cc(C[n+]2ccccc2)cc(C[N+](C)(C)CCCCCCCCCCCCCCCC)c1.[Br-].[Br-].[Br-] [Compound 5]	32 µM	125 µM	>250 µM	32 µM	32 µM	4 µM	-2.2 kcal/mol	-7.89 kcal/mol	0.18 mM	-10 kcal/mol	positive
CCCCCCCCCC[N+](C)(C)Cc1cc(C[N+](C)(C)C)cc(C[N+](C)(C)C)c1.[Br-].[Br-].[Br-] [Compound S2]	125 µM	>250 µM	>250 µM	250 µM	>250 µM	125 µM	–	–	–	–	–
CCCCCCCCCCCC[N+](C)(C)Cc1cc(C[N+](C)(C)C)cc(C[N+](C)(C)C)c1.[Br-].[Br-].[Br-] [Compound S3]	63 µM	>250 µM	>250 µM	250 µM	63 µM	125 µM	–	–	–	–	–
CCCCCCCC[N+](C)(C)Cc1cc(C[N+](C)(C)C)cc(C[N+](C)(C)CCCCCCCC)c1.[Br-].[Br-].[Br-] [Compound 6]	>250 µM	>250 µM	>250 µM	>250 µM	>250 µM	>250 µM	–	–	–	–	–
CCCCCCCCCC[N+](C)(C)Cc1cc(C[N+](C)(C)C)cc(C[N+](C)(C)CCCCCCCCCC)c1.[Br-].[Br-].[Br-] [Compound 7]	8 µM	125 µM	>250 µM	8 µM	16 µM	4 µM	1.58 kcal/mol	-5.26 kcal/mol	12 mM	-3.59 kcal/mol	negative
CCCCCCCCCCCCCC[N+](C)(C)Cc1cc(C[n+]2ccccc2)cc(C[N+](C)(C)CCCCCCCCCCCCCC)c1.[Br-].[Br-].[Br-] [Compound 4]	8 µM	16 µM	63 µM	4 µM	4 µM	4 µM	-2.08 kcal/mol	-7.17 kcal/mol	0.56 mM	-9.08 kcal/mol	positive
CCCCCCCCCC[N+](C)(C)Cc1cc(C[n+]2ccccc2)cc(C[N+](C)(C)CCCCCCCCCC)c1.[Br-].[Br-].[Br-] [Compound 2]	8 µM	16 µM	63 µM	8 µM	2 µM	8 µM	2.39 kcal/mol	-5.02 kcal/mol	14 mM	-2.63 kcal/mol	negative
CCCCCCCC[N+](C)(C)Cc1cc(C[N+](C)(C)C)cc(C[N+](C)(C)C)c1.[Br-].[Br-].[Br-] [Compound S1]	>250 µM	>250 µM	>250 µM	>250 µM	>250 µM	>250 µM	–	–	–	–	–
